# Measured values as given in article PMC12615485, “New dengue virus inhibitors targeting NS3-NS5 interaction identified by in silico screening” (Frontiers in Microbiology, 2025).
# Where two headings read alike, the source gives them in different places.
# Key:
# [1] = molecular target: NS3-NS5 interaction (NS3 f.l. binding to coated 6His-NS5_270–900) (Dengue virus type 2, UniProt P14340); test: ELISA-based NS3-NS5 interaction assay; set-up: species or system DENV-2; conditions: for IC50: read-out: In vitro activity IC50; for inhibition at 100 µM: fixed concentration of 100 μM, compared with DMSO control; for reduction of NS3-NS5 interaction: at the tested concentrations
# Method: Nunc Maxisorp microplates (Thermo Fisher Scientific) were coated with 400 ng/well of 6His-NS5_270–900, or GST protein as a control, in PBS for 3 h at 37 °C and then blocked with 5% (wt/v) bovine serum albumin (BSA, Merck Life Science) in PBS overnight at 4 °C. Blocked wells were incubated at room temperature (RT) for 2 h with increasing amounts of NS3 f.l. or GST–NS3_172–618. 6His-NS5_270–900-coated plates were also incubated with increasing concentration of GST, as a control. After washing with PBS containing 0.3% Tween 20 (Fisher Scientific, Waltham, MA, United States), the NS3-NS5 interaction was detected by incubating the plates with the anti-NS3 monoclonal antibody (GT2811 clone, Genetex, Irvine, CA, United States) diluted 1:6,000 in PBS + 2% (v/v) FBS (Thermo Fisher Scientific) for 1 h at RT. The unbound primary antibody was removed by further washes with PBS + 0.3% Tween 20 and the secondary goat anti-mouse HRP-conjugated antibody (GenScript Biotech) at a dilution of 1:8,000 in PBS + 2% FBS was then added. After incubation for 1 h at RT and following washes, the colorimetric substrate 3,3′,5,5′-tetramethylbenzidine (TMB, SeraCare Life Sciences, Milford, MA, United States) was added to each well and absorbance was read at 450 nm by an ELISA plate reader (Tecan Infinite 200 PRO, Mannedorf, Switzerland).
# To test the inhibitory effect of compounds on NS3-NS5 interaction, 6His-NS5_270–900-coated wells were incubated with a fixed amount of NS3 f.l. (200 ng) along with increasing concentrations of test compounds or DMSO as a control. To exclude non-specific inhibition of compounds due to colloidal aggregation, the inhibitory activities of compounds were tested in the presence or the absence of 0.002% Triton X-100 (Fisher Scientific), a condition which reverses and prevents the colloidal formation of organic molecules ([McGovern et al., 2003]). All the compound concentrations were tested at least in duplicate.
# DENV-2 NGC strain = test: Plaque reduction assay (PRA) in Vero cells; assay type: cell-based; conditions: for EC50: PRA in Vero cells, read-out: Antiviral activity EC50; for SI (selectivity index): ratio between CC50 and EC50
# Vero cells [2] = test: MTT cytotoxicity assay; conditions: read-out: Cytotoxicity CC50; best analogues of hit 3, in-house synthesized hit 3 as control; MTT in Vero cells at 72 h
# MTT cytotoxicity assay = conditions: African green monkey, Vero cells
# Vero cells [3] = system: Vero cells
# [4] = analogues of hit 3, in-house synthesized hit 3 as control, 50% inhibition of NS3-NS5 binding in ELISA
# [5] = best analogues of hit 3, in-house synthesized hit 3 as control, NGC strain
# [6] = Dengue virus, DENV2, Vero, selected hits, 50% inhibition of viral plaque formation, DENV-2
# [7] = selected hits, concentration that decreased the NS3-NS5 binding by 50% in ELISA
smiles,measurement,setting,value
CCOC(=O)c1ccc(NC(=S)NNC(=O)c2ccccc2O)cc1 [Compound 54],IC50,[1]; [4],31 ± 18.3 µM
O=C(NNC(=S)Nc1ccc(Cl)cc1Cl)c1ccccc1O [Compound 51],IC50,[1]; [4],97.2 ± 24.3 µM
Cc1ccc(NC(=S)NNC(=O)c2ccccn2)cc1 [Compound 64],EC50,DENV-2 NGC strain; [5],2.1 ± 1.6 µM
same,CC50,Vero cells [2],39.6 ± 10.2 µM
O=C(NCc1ncc(-c2ccccc2)[nH]1)Nc1ccncc1F [Hit 30],EC50,DENV-2 NGC strain; [6],24.6 ± 5.9 µM
same,CC50 at 72 h,MTT cytotoxicity assay,> 250 µM
same,inhibition at 100 µM,[1],≥ 50%
same,IC50,[1]; [7],44.6 ± 8.1 µM
Cc1ccc(NC(=S)NNC(=O)c2ccc(C#N)cc2)cc1 [Compound 77],IC50,[1]; [4],> 200 µM
same,reduction of NS3-NS5 interaction,[1],< 50%
CN(C)c1ccc(NC(=S)NNC(=O)c2ccccn2)cc1 [Compound 69],EC50,DENV-2 NGC strain; [5],12.4 ± 5.8 µM
same,fold lower IC50 than hit 3,[1]; IC50 of 1.0 μM versus 15.6 μM,15 fold
same,CC50,Vero cells [3],72 ± 17.2 µM
O=C(NNC(=S)Nc1ccccc1)c1ccccc1O [Compound 53],IC50,[1]; [4],82.7 ± 21.5 µM
Cc1ccc(NC(=S)NNC(=O)c2ccco2)cc1 [Compound 68],IC50,[1]; [4],20.1 ± 7.5 µM
COc1ccc(C(=O)NNC(=S)Nc2ccccc2)cc1 [Compound 52],IC50,[1]; [4],167 ± 29 µM
N#Cc1cn[nH]c1NCc1ccc(OCc2ccccc2)cc1O [Hit 50],EC50,DENV-2 NGC strain; [6],13.4 ± 1.8 µM
same,SI (selectivity index),DENV-2 NGC strain; selected hits,>19
same,CC50 at 72 h,MTT cytotoxicity assay,> 250 µM
same,inhibition at 100 µM,[1],≥ 50%
same,IC50,[1]; [7],32 ± 6.7 µM
Cc1ccc(NC(=S)NNC(=O)c2ccc(C(F)(F)F)cc2C(F)(F)F)cc1 [Compound 73],IC50,[1]; [4],> 200 µM
same,reduction of NS3-NS5 interaction,[1],< 50%
Cc1ccc(NC(=S)NNC(=O)c2ccc(C(F)(F)F)cc2)cc1 [Compound 55],IC50,[1]; [4],118 ± 23 µM
N#Cc1ccc(NC(=S)NNC(=O)c2ccccc2O)cc1 [Compound 75],IC50,[1]; [4],40.3 ± 8.3 µM
NC(=O)COc1ccc(CNC(=O)Nc2ccc(Cl)cc2)cc1 [Hit 29],EC50,DENV-2 NGC strain; [6],34.3 ± 9.4 µM
same,SI (selectivity index),DENV-2 NGC strain; selected hits,1
same,CC50 at 72 h,MTT cytotoxicity assay,35.7 ± 4.9 µM
same,inhibition at 100 µM,[1],≥ 50%
same,IC50,[1]; [7],142 ± 26 µM
N=c1c2cnn(-c3ccccc3)c2ncn1NC(=S)Nc1ccccc1 [Hit 15],EC50,DENV-2 NGC strain; [6],> 100 µM
same,SI (selectivity index),DENV-2 NGC strain; selected hits,>3
same,CC50 at 72 h,MTT cytotoxicity assay,> 250 µM
same,inhibition at 100 µM,[1],≥ 50%
same,IC50,[1]; [7],123 ± 16 µM
Cc1ccc(NC(=S)NNC(=O)c2ccc(O)cc2)cc1 [Compound 62],IC50,[1]; [4],> 200 µM
same,reduction of NS3-NS5 interaction,[1],< 50%
Cc1nc(NC(=O)c2ccc(C(N)=O)cc2)sc1SCC#N [Hit 6],EC50,DENV-2 NGC strain; [6],98.8 ± 10.4 µM
same,SI (selectivity index),DENV-2 NGC strain; selected hits,>3
same,CC50 at 72 h,MTT cytotoxicity assay,> 250 µM
same,inhibition at 100 µM,[1],≥ 50%
same,IC50,[1]; [7],51.4 ± 10.3 µM
CN(C)c1ccc(NC(=S)NNC(=O)c2ccco2)cc1 [Compound 71],IC50,[1]; [4],11.6 ± 2.6 µM
O=C(NNC(=S)Nc1ccc([N+](=O)[O-])cc1)c1ccccc1O [Compound 67],IC50,[1]; [4],> 200 µM
same,reduction of NS3-NS5 interaction,[1],< 50%
